Measured values from paper PMC3530535, “Crystal Structure of Proteus mirabilis Lipase, a Novel Lipase from the Proteus/Psychrophilic Subfamily of Lipase Family I.1” (PLoS ONE, 2012).

Target: T1, Proteus mirabilis lipase (PML) (Proteus mirabilis, UniProt B4EVM3)
T1 construct: gene PMI0999; N-terminal hexahistidine tag (pET28a, plasmid pTK05), expressed in E. coli BL21Gold(DE3), Ni-NTA purified, tag removal not described
Assay: X-ray crystal structure, […] A
Format: binding
Settings: covalent; diethyl adduct on Ser79 O-gamma; treated with 2 mM paraoxon, 0.6% Triton X100, 18 h, 25 °C, pH 7.5

T1 sequence (B4EVM3 entry or part of it): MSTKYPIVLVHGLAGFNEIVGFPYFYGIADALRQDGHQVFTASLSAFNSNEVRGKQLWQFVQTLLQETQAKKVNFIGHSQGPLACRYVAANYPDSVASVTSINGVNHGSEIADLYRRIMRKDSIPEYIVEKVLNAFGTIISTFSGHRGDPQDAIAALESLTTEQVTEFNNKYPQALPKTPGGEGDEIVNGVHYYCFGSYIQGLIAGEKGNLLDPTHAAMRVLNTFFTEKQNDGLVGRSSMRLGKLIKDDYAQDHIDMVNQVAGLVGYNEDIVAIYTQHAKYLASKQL

## CCOP(=O)(OCC)Oc1ccc([N+](=O)[O-])cc1 [DEP, paraoxon]
  X-ray crystal structure, 2.2 A: the small phosphonate inhibitor is covalently bound to the Oγ of S79
